Results taken from US11109593B2, “Isoxazolin-5-one derivative and herbicide containing same as active ingredient” (HOKKO CHEMICAL INDUSTRY CO., LTD., priority 2017, dated 2021).

How the values were obtained:
Format in all cases: in vivo
[1] = system: broad leaf weeds (Lindernia pyxidaria and Monochoria vaginalis); assay: Test Example 1: herbicidal effect test by treatment of rice paddy soil (immediately after seeding); settings: 120 g/10a active ingredient, dry weight vs untreated area, 14 days after treatment; for pest or weed control at 1200 g/ha: 336 h
Outline: (§1)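 Applied at 120 g a.i./10 ares as diluted emulsion dropped into flooded (~3 cm) paddy soil pots right after sowing seeds 0–1 cm deep; greenhouse, two replicates. At day 14, dry weight of treated versus untreated plants gives % herbicidal rate.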

Scirpus juncoides [2] = assay: as above; settings: 120 g/10a active ingredient, dry weight vs untreated area, 14 days after treatment
Outline: as §1

Echinochloa crus-galli [3] = assay: as above; settings: 120 g/10a active ingredient, dry weight vs untreated area, 14 days after treatment
Outline: as §1

southern crabgrass [4] = assay: Test Example 3: herbicidal effect test by treatment of dry field farming soil (one day after seeding); settings: 120 g/10a active ingredient, evaluated 14 days after treatment
Outline: (§2)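 Herbicidal rate (%) = {1 − treated/untreated mean plant dry weight} × 100, scored 14 days after spraying, duplicate pots per concentration. Emulsified compound was water-diluted and applied to soil surface one day post-seeding at 120 g a.i. per 10 ares.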

Amaranthus viridis [5] = assay: as above; settings: 120 g/10a active ingredient, evaluated 14 days after treatment
Outline: as §2

Chenopodium album [6] = assay: as above; settings: 120 g/10a active ingredient, evaluated 14 days after treatment
Outline: as §2

Echinochloa crus-galli [7] = assay: as above; settings: 120 g/10a active ingredient, evaluated 14 days after treatment
Outline: as §2

southern crabgrass [8] = assay: Test Example 4: herbicidal effect test by treatment of leave and stem in dry field farming (seven days after seeding); settings: 120 g/10a active ingredient, emulsion sprayed seven days after seeding, evaluated 14 days after treatment
Outline: (§3)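 Weeds were seeded at 20 seeds per species into the top 1 cm of alluvial upland soil in pots, then sprayed 7 days after seeding with water-diluted emulsifiable concentrate at 100 L/10 a, giving 120 g active ingredient/10 a. Duplicate pots; herbicidal rate (%) was 14 days post-treatment, from dry weight versus untreated.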

Amaranthus viridis [9] = assay: as above; settings: 120 g/10a active ingredient, emulsion sprayed seven days after seeding, evaluated 14 days after treatment
Outline: as §3

Chenopodium album [10] = assay: as above; settings: 120 g/10a active ingredient, emulsion sprayed seven days after seeding, evaluated 14 days after treatment
Outline: as §3

Echinochloa crus-galli [11] = assay: as above; settings: 120 g/10a active ingredient, emulsion sprayed seven days after seeding, evaluated 14 days after treatment
Outline: as §3

[12] = system: broad leaf weeds (Lindernia pyxidaria and Monochoria vaginalis); assay: Test Example 2: herbicidal effect test by treatment during growing period in paddy rice cultivation (seven days after seeding); settings: 120 g/10a active ingredient, assessed 14 days after treatment, dry weight vs untreated area; for pest or weed control at 1200 g/ha: 336 h
Outline: (§4)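 Emulsion formulations, diluted in water, applied dropwise to flooded pots (about 3 cm water) 7 days post-seeding at 120 g a.i./10 ares. Weeds sown 30 seeds each, 0–1 cm deep in puddled paddy soil; greenhouse. Readout: % reduction in plant dry weight vs untreated, day 14, duplicates.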

Scirpus juncoides [13] = assay: as above; settings: 120 g/10a active ingredient, assessed 14 days after treatment, dry weight vs untreated area
Outline: as §4

Echinochloa crus-galli [14] = assay: as above; settings: 120 g/10a active ingredient, assessed 14 days after treatment, dry weight vs untreated area
Outline: as §4

SMILES	Herbicidal rate (%) Lindernia pyxidaria ([1]; Lindernia pyxidaria) [%]	Herbicidal rate (%) Monochoria vaginalis ([1]; Monochoria vaginalis) [%]	Herbicidal rate (%) Scirpus juncoides (Scirpus juncoides [2]) [%]	Herbicidal rate (%) Echinochloa crus-galli (Echinochloa crus-galli [3]) [%]	herbicidal rate, southern crabgrass (southern crabgrass [4]) [%]	herbicidal rate, Amaranthus viridis (Amaranthus viridis [5]) [%]	herbicidal rate, Chenopodium album (Chenopodium album [6]) [%]	herbicidal rate, Echinochloa crus-galli (Echinochloa crus-galli [7]) [%]	herbicidal effect (herbicidal rate), southern crabgrass (southern crabgrass [8]) [%]	herbicidal effect (herbicidal rate), Amaranthus viridis (Amaranthus viridis [9]) [%]	herbicidal effect (herbicidal rate), Chenopodium album (Chenopodium album [10]) [%]	herbicidal effect (herbicidal rate), Echinochloa crus-galli (Echinochloa crus-galli [11]) [%]	Herbicidal rate (%) Lindernia pyxidaria ([12]; Lindernia pyxidaria) [%]	Herbicidal rate (%) Monochoria vaginalis ([12]; Monochoria vaginalis) [%]	Herbicidal rate (%) Scirpus juncoides (Scirpus juncoides [13]) [%]	Herbicidal rate (%) Echinochloa crus-galli (Echinochloa crus-galli [14]) [%]	also measured
CCCCC(CC)Cn1oc(=O)c(Cc2ccccc2NS(=O)(=O)C(F)(F)F)c1C (centres unmarked) [Compound 1-130]	100	100	100	100	70	40	50	90	60	50	40	60	90	90	80	100	
CCC(C)Cn1oc(=O)c(Cc2ccccc2N(C(=O)OCCOC)S(=O)(=O)C(F)(F)F)c1C (centres unmarked) [Compound 1-733]	90	90	100	100	100	80	60	100	80	60	60	90	70	90	90	100	
CCCCC(CC)Cn1oc(=O)c(Cc2ccccc2N(S(=O)(=O)C(F)(F)F)S(=O)(=O)C(F)(F)F)c1C (centres unmarked) [Compound 1-980]	100	80	90	100	60	40	40	40	40	40	40	60	80	80	80	100	
Cc1c(Cc2cc(F)ccc2N(S(=O)(=O)C(F)(F)F)S(=O)(=O)C(F)(F)F)c(=O)on1CC(C)C [Compound 1-29]	90	90	90	100	70	40	40	70	40	60	0	60	80	90	90	100	
CCC(C)n1oc(=O)c(Cc2ccccc2N(C(=O)CC(C)C)S(=O)(=O)C(F)(F)F)c1C (centres unmarked) [Compound 1-352]	90	90	90	90	90	90	90	90	90	40	40	90	90	90	90	90	
Cc1c(Cc2ccccc2NS(=O)(=O)C(F)(F)F)c(=O)on1CC(C)C [Compound 1-105, 1,1,1-trifluoro-N-[2-[(2-isobutyl-3-methyl-5-oxoisoxazol-4-yl)methyl]phenyl]methanesulfonamide]																	pest or weed control at 1200 g/ha ([1]; Monochoria vaginalis, read-out: Herbicidal rate (%) Monochoria vaginalis): 100%; pest or weed control at 1200 g/ha ([1]; in Lindernia, Lindernia pyxidaria, read-out: Herbicidal rate (%) Lindernia pyxidaria): 100%; pest or weed control at 1200 g/ha (Scirpus juncoides [2]; in Schoenoplectiella juncoides, 336 h, read-out: Herbicidal rate (%) Scirpus juncoides): 90%; pest or weed control at 1200 g/ha (Echinochloa crus-galli [3]; in Echinochloa crus-galli, 336 h, read-out: Herbicidal rate (%) Echinochloa crus-galli): 90%; pest or weed control at 1200 g/ha (southern crabgrass [4]; Digitaria ciliaris, 336 h, read-out: herbicidal rate, southern crabgrass): 90%; pest or weed control at 1200 g/ha (Amaranthus viridis [5]; Amaranthus viridis, 336 h, read-out: herbicidal rate, Amaranthus viridis): 70%; pest or weed control at 1200 g/ha (Chenopodium album [6]; Chenopodium album, 336 h, read-out: herbicidal rate, Chenopodium album): 50%; pest or weed control at 1200 g/ha (Echinochloa crus-galli [7]; Echinochloa crus-galli, 336 h, read-out: herbicidal rate, Echinochloa crus-galli): 60%; pest or weed control at 1200 g/ha (southern crabgrass [8]; Digitaria ciliaris, 336 h, read-out: herbicidal effect (herbicidal rate), southern crabgrass): 50%; pest or weed control at 1200 g/ha (Amaranthus viridis [9]; Amaranthus viridis, 336 h, read-out: herbicidal effect (herbicidal rate), Amaranthus viridis): 50%; pest or weed control at 1200 g/ha (Chenopodium album [10]; Chenopodium album, 336 h, read-out: herbicidal effect (herbicidal rate), Chenopodium album): 40%; pest or weed control at 1200 g/ha (Echinochloa crus-galli [11]; Echinochloa crus-galli, 336 h, read-out: herbicidal effect (herbicidal rate), Echinochloa crus-galli): 90%; pest or weed control at 1200 g/ha ([12]; Lindernia pyxidaria, read-out: herbicidal rate (%) Lindernia pyxidaria): 90%; pest or weed control at 1200 g/ha ([12]; Monochoria vaginalis, read-out: herbicidal rate (%) Monochoria vaginalis): 90%; pest or weed control at 1200 g/ha (Scirpus juncoides [13]; Schoenoplectiella juncoides, 336 h, read-out: herbicidal rate (%) Scirpus juncoides): 90%; pest or weed control at 1200 g/ha (Echinochloa crus-galli [14]; Echinochloa crus-galli, 336 h, read-out: herbicidal rate (%) Echinochloa crus-galli): 90%
COCC(C)n1oc(=O)c(Cc2ccccc2N(C(=O)OCc2ccccc2)S(=O)(=O)C(F)(F)F)c1C (centres unmarked) [Compound 1-790]	90	90	90	90	90	90	90	90	90	40	40	90	90	90	90	90	
Cc1c(Cc2ccccc2N(C(=O)C(C)C)S(=O)(=O)C(F)(F)F)c(=O)on1CC(C)(C)C [Compound 1-333]	90	90	90	90	90	90	90	90	90	40	40	90	90	90	90	90	
